Reference: patent US7022667B2, “O-derivatized nocathiacin derivatives” (Bristol-Myers Squibb Company, priority 2002, dated 2006)
Converted amounts (≈) assume the structure as drawn.

Experiments:
Test in all cases: MIC, broth micro dilution assay (NCCLS)
Type in all cases: cell-based
[1] = system: Enterococcus faecalis A20688; conditions: Mueller-Hinton medium, 35° C., 18 hours
Procedure: (§1) The serial broth dilution method used Mueller-Hinton medium except for the Streptococcus pneumoniae which was tested in 50% Mueller-Hinton medium and 50% Todd Hewitt medium. The final bacterial inoculate contained approximately 5×10^5 cfu/well and was run on microtiter plates. The volume of each well was 100 μL and the plates were incubated at 35° C. for 18 hours in ambient air. The MIC was defined as the lowest drug concentration that prevented visible growth.

[2] = system: Staphylococcus aureus A15090; conditions: Mueller-Hinton medium, 35° C., 18 hours
Procedure: as §1

[3] = system: Streptococcus pneumoniae A28272; conditions: 50% Mueller-Hinton medium and 50% Todd Hewitt medium, 35° C., 18 hours
Procedure: as §1

Structure (SMILES)	MIC (μg/mL) Enterococcus faecalis A20688 [1] [µg/mL]	MIC (μg/mL) Staphylococcus aureus A15090 [2]	MIC (μg/mL) Streptococcus pneumoniae A28272 [3] [µg/mL]
C=C(NC(=O)c1csc(-c2nc3c(cc2OC)-c2nc(cs2)C(=O)NC(C(C)O)C(=O)NC(=C(C)OC)c2nc(cs2)C(=O)NC2c4nc(cs4)C(=O)NC(COC(=O)c4c5c6c(cccc6n4O)COC(=O)C(OC4CC(C)(O)C(N(C)C)C(C)O4)C2OC5)c2nc-3cs2)n1)C(N)=O (stereo not drawn) [Example 1]	0.015 (≈ 0.0103 µM)	0.015 µg/mL (≈ 0.0103 µM)	0.003 (≈ 0.00207 µM)
C=C(NC(=O)c1csc(-c2nc3c(cc2OCC(O)CO)-c2nc(cs2)C(=O)NC(C(C)O)C(=O)NC(=C(C)OC)c2nc(cs2)C(=O)NC2c4nc(cs4)C(=O)NC(COC(=O)c4c5c6c(cccc6n4O)COC(=O)C(OC4CC(C)(O)C(N(C)C)C(C)O4)C2OC5)c2nc-3cs2)n1)C(N)=O (stereo not drawn) [Example 3]	2.0 (≈ 1.32 µM)	1.0 µg/mL (≈ 0.662 µM)	0.25 (≈ 0.165 µM)
C=C(NC(=O)c1csc(-c2nc3c(cc2O)-c2nc(cs2)C(=O)NC(C(C)O)C(=O)NC(=C(C)OC)c2nc(cs2)C(=O)NC2c4nc(cs4)C(=O)NC(COC(=O)c4c5c6c(cccc6n4OC)COC(=O)C(OC4CC(C)(O)C(N(C)C)C(C)O4)C2OC5)c2nc-3cs2)n1)C(N)=O (stereo not drawn) [Example 6]	0.125 (≈ 0.0861 µM)	0.03 µg/mL (≈ 0.0207 µM)	0.003 (≈ 0.00207 µM)
C=C(NC(=O)c1csc(-c2nc3c(cc2O)-c2nc(cs2)C(=O)NC(C(C)O)C(=O)NC(=C(C)OC)c2nc(cs2)C(=O)NC2c4nc(cs4)C(=O)NC(COC(=O)c4c5c6c(cccc6n4OCCCS(=O)(=O)[O-])COC(=O)C(OC4CC(C)(O)C(N(C)C)C(C)O4)C2OC5)c2nc-3cs2)n1)C(N)=O.[Na+] (stereo not drawn) [Example 7]	0.125	0.125 µg/mL	0.007
C=C(NC(=O)c1csc(-c2nc3c(cc2O)-c2nc(cs2)C(=O)NC(C(C)O)C(=O)NC(=C(C)OC)c2nc(cs2)C(=O)NC2c4nc(cs4)C(=O)NC(COC(=O)c4c5c6c(cccc6n4OCC(N)=O)COC(=O)C(OC4CC(C)(O)C(N(C)C)C(C)O4)C2OC5)c2nc-3cs2)n1)C(N)=O (stereo not drawn) [Example 8]	0.25 (≈ 0.167 µM)	0.5 µg/mL (≈ 0.335 µM)	0.03 (≈ 0.0201 µM)
C=C(NC(=O)c1csc(-c2nc3c(cc2OCC(N)=O)-c2nc(cs2)C(=O)NC(C(C)O)C(=O)NC(=C(C)OC)c2nc(cs2)C(=O)NC2c4nc(cs4)C(=O)NC(COC(=O)c4c5c6c(cccc6n4OCC(N)=O)COC(=O)C(OC4CC(C)(O)C(N(C)C)C(C)O4)C2OC5)c2nc-3cs2)n1)C(N)=O (stereo not drawn) [Example 9]	4.0 (≈ 2.58 µM)	2.0 µg/mL (≈ 1.29 µM)	0.125 (≈ 0.0806 µM)
C=C(NC(=O)c1csc(-c2nc3c(cc2O)-c2nc(cs2)C(=O)NC(C(C)O)C(=O)NC(=C(C)OC)c2nc(cs2)C(=O)NC2c4nc(cs4)C(=O)NC(COC(=O)c4c5c6c(cccc6n4OCc4ccc(C(=O)OC6CCCCO6)cc4)COC(=O)C(OC4CC(C)(O)C(N(C)C)C(C)O4)C2OC5)c2nc-3cs2)n1)C(N)=O (stereo not drawn) [Example 10]	0.5 (≈ 0.302 µM)	0.5 µg/mL (≈ 0.302 µM)	0.015 (≈ 0.00906 µM)
C=C(NC(=O)c1csc(-c2nc3c(cc2O)-c2nc(cs2)C(=O)NC(C(C)O)C(=O)NC(=C(C)OC)c2nc(cs2)C(=O)NC2c4nc(cs4)C(=O)NC(COC(=O)c4c5c6c(cccc6n4OCc4ccc(C(=O)O)cc4)COC(=O)C(OC4CC(C)(O)C(N(C)C)C(C)O4)C2OC5)c2nc-3cs2)n1)C(N)=O (stereo not drawn) [Example 11]	>128	16 µg/mL (≈ 10.2 µM)	0.06 (≈ 0.0382 µM)
C=C(NC(=O)c1csc(-c2nc3c(cc2O)-c2nc(cs2)C(=O)NC(C(C)O)C(=O)NC(=C(C)OC)c2nc(cs2)C(=O)NC2c4nc(cs4)C(=O)NC(COC(=O)c4c5c6c(cccc6n4OCOP(=O)(O)O)COC(=O)C(OC4CC(C)(O)C(N(C)C)C(C)O4)C2OC5)c2nc-3cs2)n1)C(N)=O (stereo not drawn) [Example 12]	1.0 (≈ 0.646 µM)	0.25 µg/mL (≈ 0.162 µM)	0.015 (≈ 0.00969 µM)
C=C(NC(=O)c1csc(-c2nc3c(cc2O)-c2nc(cs2)C(=O)NC(C(C)O)C(=O)NC(=C(C)OC)c2nc(cs2)C(=O)NC2c4nc(cs4)C(=O)NC(COC(=O)c4c5c6c(cccc6n4OCCCl)COC(=O)C(OC4CC(C)(O)C(N(C)C)C(C)O4)C2OC5)c2nc-3cs2)n1)C(N)=O.Cl (stereo not drawn) [Example 13]	0.03	0.015 µg/mL	0.003
C=C(NC(=O)c1csc(-c2nc3c(cc2O)-c2nc(cs2)C(=O)NC(C(C)O)C(=O)NC(=C(C)OC)c2nc(cs2)C(=O)NC2c4nc(cs4)C(=O)NC(COC(=O)c4c5c6c(cccc6n4OCCC[N+](C)(C)C)COC(=O)C(OC4CC(C)(O)C(N(C)C)C(C)O4)C2OC5)c2nc-3cs2)n1)C(N)=O (stereo not drawn) [Example 14]	2.0	>128 µg/mL	0.5
C=C(NC(=O)c1csc(-c2nc3c(cc2O)-c2nc(cs2)C(=O)NC(C(C)O)C(=O)NC(=C(C)OC)c2nc(cs2)C(=O)NC2c4nc(cs4)C(=O)NC(COC(=O)c4c5c6c(cccc6n4OC(=O)NCCCC)COC(=O)C(OC4CC(C)(O)C(N(C)C)C(C)O4)C2OC5)c2nc-3cs2)n1)C(N)=O (stereo not drawn) [Example 15]	0.03 (≈ 0.0195 µM)	≦0.001 μg/mL	0.007 (≈ 0.00456 µM)
C=C(NC(=O)c1csc(-c2nc3c(cc2O)-c2nc(cs2)C(=O)NC(C(C)O)C(=O)NC(=C(C)OC)c2nc(cs2)C(=O)NC2c4nc(cs4)C(=O)NC(COC(=O)c4c5c6c(cccc6n4OC(=O)NCCCN4CCN(C)CC4)COC(=O)C(OC4CC(C)(O)C(N(C)C)C(C)O4)C2OC5)c2nc-3cs2)n1)C(N)=O (stereo not drawn) [Example 16]	0.003 (≈ 0.00185 µM)	0.003 µg/mL (≈ 0.00185 µM)	0.0005 (≈ 0.000308 µM)
C=C(NC(=O)c1csc(-c2nc3c(cc2OC)-c2nc(cs2)C(=O)NC(C(C)O)C(=O)NC(=C(C)OC)c2nc(cs2)C(=O)NC2c4nc(cs4)C(=O)NC(COC(=O)c4c5c6c(cccc6n4OC)COC(=O)C(OC4CC(C)(O)C(N(C)C)C(C)O4)C2OC5)c2nc-3cs2)n1)C(N)=O (stereo not drawn) [Example 18]	0.015 (≈ 0.0102 µM)	0.007 µg/mL (≈ 0.00478 µM)	0.001 (≈ 0.000682 µM)
C=C(NC(=O)c1csc(-c2nc3c(cc2OCC(=O)OC)-c2nc(cs2)C(=O)NC(C(C)O)C(=O)NC(=C(C)OC)c2nc(cs2)C(=O)NC2c4nc(cs4)C(=O)NC(COC(=O)c4c5c6c(cccc6n4OCC(=O)OC)COC(=O)C(OC4CC(C)(O)C(N(C)C)C(C)O4)C2OC5)c2nc-3cs2)n1)C(N)=O (stereo not drawn) [Example 19]	0.125 (≈ 0.079 µM)	0.06 µg/mL (≈ 0.0379 µM)	0.003 (≈ 0.0019 µM)
C=C(NC(=O)c1csc(-c2nc3c(cc2OCC(=O)O)-c2nc(cs2)C(=O)NC(C(C)O)C(=O)NC(=C(C)OC)c2nc(cs2)C(=O)NC2c4nc(cs4)C(=O)NC(COC(=O)c4c5c6c(cccc6n4OCC(=O)O)COC(=O)C(OC4CC(C)(O)C(N(C)C)C(C)O4)C2OC5)c2nc-3cs2)n1)C(N)=O.O=C(O)C(F)(F)F (stereo not drawn) [Example 20]	>128	16 µg/mL	0.5
C=C(NC(=O)c1csc(-c2nc3c(cc2OCOP(=O)([O-])O)-c2nc(cs2)C(=O)NC(C(C)O)C(=O)NC(=C(C)OC)c2nc(cs2)C(=O)NC2c4nc(cs4)C(=O)NC(COC(=O)c4c5c6c(cccc6n4OCOP(=O)([O-])O)COC(=O)C(OC4CC(C)(O)C(N(C)C)C(C)O4)C2OC5)c2nc-3cs2)n1)C(N)=O.[Na+].[Na+] (stereo not drawn) [Example 22]	0.25	0.125 µg/mL	0.015
C=C(NC(=O)c1csc(-c2nc3c(cc2O)-c2nc(cs2)C(=O)NC(C(C)O)C(=O)NC(=C(C)OC)c2nc(cs2)C(=O)NC2c4nc(cs4)C(=O)NC(COC(=O)c4c5c6c(cccc6n4OC(C)=O)COC(=O)C(OC4CC(C)(O)C(N(C)C)C(C)O4)C2OC5)c2nc-3cs2)n1)C(N)=O (stereo not drawn) [Example 23]	0.25 (≈ 0.169 µM)	0.03 µg/mL (≈ 0.0203 µM)	0.06 (≈ 0.0406 µM)
C=C(NC(=O)c1csc(-c2nc3c(cc2OC(C)=O)-c2nc(cs2)C(=O)NC(C(C)O)C(=O)NC(=C(C)OC)c2nc(cs2)C(=O)NC2c4nc(cs4)C(=O)NC(COC(=O)c4c5c6c(cccc6n4O)COC(=O)C(OC4CC(C)(O)C(N(C)C)C(C)O4)C2OC5)c2nc-3cs2)n1)C(N)=O.Cl (stereo not drawn) [Example 24]	0.015	0.03 µg/mL	0.03
C=C(NC(=O)c1csc(-c2nc3c(cc2OCCN2CCOCC2)-c2nc(cs2)C(=O)NC(C(C)O)C(=O)NC(=C(C)OC)c2nc(cs2)C(=O)NC2c4nc(cs4)C(=O)NC(COC(=O)c4c5c6c(cccc6n4OCCN4CCOCC4)COC(=O)C(OC4CC(C)(O)C(N(C)C)C(C)O4)C2OC5)c2nc-3cs2)n1)C(N)=O (stereo not drawn) [Example 26]	0.25 (≈ 0.15 µM)	1.0 µg/mL (≈ 0.601 µM)	0.03 (≈ 0.018 µM)
C=C(NC(=O)c1csc(-c2nc3c(cc2O)-c2nc(cs2)C(=O)NC(C(C)O)C(=O)NC(=C(C)OC)c2nc(cs2)C(=O)NC2c4nc(cs4)C(=O)NC(COC(=O)c4c5c6c(cccc6n4OCCN4CCOCC4)COC(=O)C(OC4CC(C)(O)C(N(C)C)C(C)O4)C2OC5)c2nc-3cs2)n1)C(N)=O.O=C(O)C(F)(F)F (stereo not drawn) [Example 27]	0.06	0.25 µg/mL	0.015
